Reference: US12435089B2, “3-oxadiazolyl substituted pyrazolo[1,5,a]pyrimidines for ROS1, NTRK, and ALK mediated diseases” (TYK MEDICINES, INC., priority 2019, dated 2025)
pIC50: −log10 of the molar value. Read-outs that look alike come from different tables or passages of the source.

Legend:
[1] = biological target: TRKC (Homo sapiens (Human), UniProt Q16288); assay: Radio-tagged HotSpot kinase assay, TRKC; assay type: biochemical; conditions: 33P-ATP, 120 min, room temperature
Experimental: (§2) Inhibition of protein kinase activity by compounds was carried out on the Radio-tagged HotSpot kinase experimental platform of Reaction Biology Corporation. Fresh reaction solution (20 mM HEPESpH 7.5, 10 mM MgCl2, 1 mM EGTA, 0.02% Brij35, 0.02 mg/ml BSA, 0.1 mM Na3VO4, 2 mM DTT, 1% DMSO) containing corresponding substrates was prepared, cofactor and kinase to be tested were added into the above solution and mixed gently. Echo550 pipetting system was used to add the test compound DMSO solution to each well (the blank control group was added with the corresponding volume of DMSO), then 33P-ATP (with a final specific activity of 0.01 μCi/μL) was added to start the reaction. The reaction solution was incubated at room temperature for 120 minutes.

[2] = biological target: ROS1 (Homo sapiens (Human), UniProt P08922); assay: Radio-tagged HotSpot kinase assay, ROS1; conditions: for IC50: read-out: ROS1 (IC50/nM), 33P-ATP, 120 min, room temperature
Chain of ROS1 (P08922 28-2347): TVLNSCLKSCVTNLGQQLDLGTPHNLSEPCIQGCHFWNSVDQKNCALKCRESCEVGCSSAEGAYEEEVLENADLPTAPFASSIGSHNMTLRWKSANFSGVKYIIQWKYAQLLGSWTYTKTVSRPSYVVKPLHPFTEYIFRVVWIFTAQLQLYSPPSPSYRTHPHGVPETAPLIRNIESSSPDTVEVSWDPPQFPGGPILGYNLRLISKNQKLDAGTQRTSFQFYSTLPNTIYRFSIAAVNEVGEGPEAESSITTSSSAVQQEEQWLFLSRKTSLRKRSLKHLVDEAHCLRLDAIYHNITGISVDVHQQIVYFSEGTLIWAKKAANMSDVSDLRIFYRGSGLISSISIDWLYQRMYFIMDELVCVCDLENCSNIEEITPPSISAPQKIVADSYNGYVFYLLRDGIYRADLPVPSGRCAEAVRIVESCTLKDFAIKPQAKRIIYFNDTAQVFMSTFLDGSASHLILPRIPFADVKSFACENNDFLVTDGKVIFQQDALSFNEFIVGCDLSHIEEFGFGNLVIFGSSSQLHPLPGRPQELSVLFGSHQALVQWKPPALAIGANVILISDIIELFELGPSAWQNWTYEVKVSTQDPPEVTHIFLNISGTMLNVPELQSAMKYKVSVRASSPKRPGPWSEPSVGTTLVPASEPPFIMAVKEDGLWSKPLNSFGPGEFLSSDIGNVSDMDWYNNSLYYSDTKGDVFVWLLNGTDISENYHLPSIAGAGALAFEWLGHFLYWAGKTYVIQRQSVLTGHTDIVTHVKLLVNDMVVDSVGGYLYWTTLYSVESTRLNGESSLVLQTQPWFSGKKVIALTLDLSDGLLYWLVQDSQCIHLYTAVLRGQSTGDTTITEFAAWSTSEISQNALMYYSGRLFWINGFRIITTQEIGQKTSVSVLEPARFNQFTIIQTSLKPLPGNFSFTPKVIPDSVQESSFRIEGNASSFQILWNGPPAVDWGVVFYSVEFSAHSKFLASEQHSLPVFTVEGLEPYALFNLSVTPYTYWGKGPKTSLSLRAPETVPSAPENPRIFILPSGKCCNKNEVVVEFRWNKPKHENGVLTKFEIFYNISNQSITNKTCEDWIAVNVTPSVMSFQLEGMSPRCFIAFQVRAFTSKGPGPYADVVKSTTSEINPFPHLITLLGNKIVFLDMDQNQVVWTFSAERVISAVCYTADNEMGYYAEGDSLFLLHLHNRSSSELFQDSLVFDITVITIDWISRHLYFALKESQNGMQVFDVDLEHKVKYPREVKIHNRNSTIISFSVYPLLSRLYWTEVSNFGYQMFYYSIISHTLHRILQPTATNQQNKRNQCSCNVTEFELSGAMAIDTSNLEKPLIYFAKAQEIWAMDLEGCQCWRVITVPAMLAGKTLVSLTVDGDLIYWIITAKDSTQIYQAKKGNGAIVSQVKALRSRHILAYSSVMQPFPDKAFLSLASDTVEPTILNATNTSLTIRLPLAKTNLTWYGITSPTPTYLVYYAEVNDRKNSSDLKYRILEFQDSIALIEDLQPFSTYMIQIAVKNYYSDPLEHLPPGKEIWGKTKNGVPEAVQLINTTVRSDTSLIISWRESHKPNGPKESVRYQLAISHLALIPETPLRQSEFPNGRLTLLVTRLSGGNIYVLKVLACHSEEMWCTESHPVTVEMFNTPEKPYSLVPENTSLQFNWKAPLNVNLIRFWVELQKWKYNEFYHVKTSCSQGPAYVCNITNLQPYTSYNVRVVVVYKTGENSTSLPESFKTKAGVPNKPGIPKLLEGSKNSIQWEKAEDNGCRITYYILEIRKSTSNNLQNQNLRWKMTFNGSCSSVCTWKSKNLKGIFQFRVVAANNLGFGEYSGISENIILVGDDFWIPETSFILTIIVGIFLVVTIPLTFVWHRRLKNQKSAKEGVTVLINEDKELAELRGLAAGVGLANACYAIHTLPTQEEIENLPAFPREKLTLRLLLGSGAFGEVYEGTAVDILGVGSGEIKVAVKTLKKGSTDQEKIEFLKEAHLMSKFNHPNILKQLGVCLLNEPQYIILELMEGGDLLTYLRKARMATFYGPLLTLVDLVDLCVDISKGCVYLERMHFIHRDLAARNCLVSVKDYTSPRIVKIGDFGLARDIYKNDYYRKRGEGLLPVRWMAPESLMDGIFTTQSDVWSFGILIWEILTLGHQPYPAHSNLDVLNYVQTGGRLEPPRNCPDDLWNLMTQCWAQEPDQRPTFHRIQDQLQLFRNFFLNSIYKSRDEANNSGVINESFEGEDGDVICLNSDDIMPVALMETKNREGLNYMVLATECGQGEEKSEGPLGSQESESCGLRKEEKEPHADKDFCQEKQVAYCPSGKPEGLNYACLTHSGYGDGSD
Experimental: as §2

[3] = biological target: ROS1 (G2032R) (Homo sapiens (Human), UniProt P08922, G2032R); assay: Radio-tagged HotSpot kinase assay, ROS1 (G2032R); conditions: for IC50: read-out: ROS1 (G2032R) (IC50/nM), 33P-ATP, 120 min, room temperature
Chain of ROS1 (G2032R) (P08922 28-2347 G2032R): as the sequence (P08922 28-2347) above, with G2005R counted along it
Experimental: as §2

[4] = biological target: TRKB (Homo sapiens (Human), UniProt Q16620); assay: Radio-tagged HotSpot kinase assay, TRKB; assay type: biochemical; conditions: 33P-ATP, 120 min, room temperature
Chain of TRKB (Q16620 32-822): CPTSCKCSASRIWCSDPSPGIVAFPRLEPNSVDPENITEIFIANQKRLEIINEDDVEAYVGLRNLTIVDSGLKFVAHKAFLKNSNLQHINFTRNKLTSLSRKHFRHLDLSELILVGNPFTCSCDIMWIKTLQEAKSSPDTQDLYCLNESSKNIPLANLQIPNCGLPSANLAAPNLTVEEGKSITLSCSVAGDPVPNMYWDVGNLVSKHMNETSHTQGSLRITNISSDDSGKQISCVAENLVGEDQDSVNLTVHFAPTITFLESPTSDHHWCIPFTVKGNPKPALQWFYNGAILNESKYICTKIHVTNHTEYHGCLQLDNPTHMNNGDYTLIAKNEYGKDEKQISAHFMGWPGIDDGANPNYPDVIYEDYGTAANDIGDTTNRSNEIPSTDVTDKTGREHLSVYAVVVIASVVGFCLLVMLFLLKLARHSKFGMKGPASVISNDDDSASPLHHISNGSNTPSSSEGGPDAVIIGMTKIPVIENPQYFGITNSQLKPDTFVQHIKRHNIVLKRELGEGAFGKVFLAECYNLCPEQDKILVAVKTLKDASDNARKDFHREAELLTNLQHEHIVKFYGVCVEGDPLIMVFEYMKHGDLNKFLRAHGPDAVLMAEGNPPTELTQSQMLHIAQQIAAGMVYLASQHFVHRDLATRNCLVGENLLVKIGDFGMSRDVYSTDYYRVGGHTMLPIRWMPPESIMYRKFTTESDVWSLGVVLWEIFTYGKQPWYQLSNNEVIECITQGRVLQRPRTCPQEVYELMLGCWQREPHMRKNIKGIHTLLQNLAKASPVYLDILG
Experimental: as §2

[5] = biological target: TRKA (Homo sapiens (Human), UniProt P04629); assay: Radio-tagged HotSpot kinase assay, TRKA;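 also: kinase activity measured through incorporation of 33P from labelled ATP into substrate, 120 min at room temperature, relative to a DMSO-only blank control, reported as inhibition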
Chain of TRKA (P04629 33-796): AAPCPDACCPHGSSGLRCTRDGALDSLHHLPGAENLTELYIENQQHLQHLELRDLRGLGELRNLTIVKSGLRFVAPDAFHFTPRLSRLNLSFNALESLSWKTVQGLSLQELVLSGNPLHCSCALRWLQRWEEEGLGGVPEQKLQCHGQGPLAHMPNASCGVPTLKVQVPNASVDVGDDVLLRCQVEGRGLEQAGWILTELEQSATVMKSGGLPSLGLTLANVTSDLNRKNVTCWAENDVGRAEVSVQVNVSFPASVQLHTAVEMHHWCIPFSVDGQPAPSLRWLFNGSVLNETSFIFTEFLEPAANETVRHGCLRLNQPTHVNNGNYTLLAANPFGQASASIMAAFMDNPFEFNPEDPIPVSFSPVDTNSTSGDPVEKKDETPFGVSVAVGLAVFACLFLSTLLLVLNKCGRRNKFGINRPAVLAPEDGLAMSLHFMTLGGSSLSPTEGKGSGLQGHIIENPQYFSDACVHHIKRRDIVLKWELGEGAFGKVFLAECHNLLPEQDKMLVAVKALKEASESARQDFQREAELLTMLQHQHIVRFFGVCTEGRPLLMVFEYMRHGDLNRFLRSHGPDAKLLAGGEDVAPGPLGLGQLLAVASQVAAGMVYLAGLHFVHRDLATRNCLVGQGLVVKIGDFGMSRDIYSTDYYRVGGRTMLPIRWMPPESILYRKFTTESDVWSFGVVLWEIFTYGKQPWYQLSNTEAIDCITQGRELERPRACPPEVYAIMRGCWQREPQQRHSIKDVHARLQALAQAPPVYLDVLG
Experimental: as §2

[6] = biological target: TRKA (G595R) (Homo sapiens (Human), UniProt P04629, G595R); assay: Radio-tagged HotSpot kinase assay, TRKA (G595R)
Chain of TRKA (G595R) (P04629 33-796 G595R): as the sequence (P04629 33-796) above, with G563R counted along it
Experimental: as §2

[7] = biological target: TRKA (G677C) (Homo sapiens, UniProt P04629, G667C); assay: Radio-tagged HotSpot kinase assay, TRKA (G677C); assay type: biochemical; conditions: 33P-ATP, 120 min, room temperature
Chain of TRKA (G677C) (P04629 33-796 G667C limits assumed): as the sequence (P04629 33-796) above, with G635C counted along it
Experimental: as §2

[8] = biological target: ALK (Homo sapiens (Human), UniProt Q9UM73); assay: Radio-tagged HotSpot kinase assay, ALK; assay type: biochemical; conditions: 33P-ATP, 120 min, room temperature
Experimental: as §2

[9] = test system: Ba/F3-LMNA-NTRK1-G595R; assay: Inhibition of cell proliferation (CellTiter-Glo), Ba/F3-LMNA-NTRK1-G595R; assay type: cell-based; conditions: 72 hours
Experimental: (§1) The experiment of inhibiting cell proliferation by compounds was carried out in Hefei Zhongkeprecedo Biomedical Technology Co., Ltd. The Ba/F3 engineered cell line stably transfected with different kinase genes was recovered with RPMI 1640 medium (Biological Industries, Israel)+10% fetal bovine serum (Biological Industries, Israel)+1% double antibody (Penicillin Streptomycin solution, Coring, USA) and cultivated two generations. The logarithmic growth phase cell suspension was taken, and 2000 cells/well were inoculated on 96-well white cell culture plate (Corning 3917, NY, USA) with a volume of 95 μL per well. 5 μL of 20×DMSO solution of the compound to be tested was added into the culture plate containing 95 μL of cell suspension. The blank control group was added with corresponding volume of DMSO, mixed well, and incubated in a 5% CO2 incubator at 37° C. for 72 hours. CellTiter-Glo was used to detect cell viability.

[10] = test system: Ba/F3-CD74-ROS1; assay: Inhibition of cell proliferation (CellTiter-Glo), Ba/F3-CD74-ROS1; assay type: cell-based; conditions: 72 hours
Experimental: as §1

[11] = test system: Ba/F3-CD74-ROS1-G2032R; assay: Inhibition of cell proliferation (CellTiter-Glo), Ba/F3-CD74-ROS1-G2032R; assay type: cell-based; conditions: 72 hours;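 also: Ba/F3 cell line expressing the CD74-ROS1 fusion with G2032R mutation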
Experimental: as §1

[12] = test system: Ba/F3-LMNA-NTRK1; assay: Inhibition of cell proliferation (CellTiter-Glo), Ba/F3-LMNA-NTRK1; assay type: cell-based; conditions: 72 hours
Experimental: as §1

[13] = biological target: ALK (G1202R) (Homo sapiens (Human), UniProt Q9UM73, G1202R); assay: Radio-tagged HotSpot kinase assay, ALK (G1202R); assay type: biochemical; conditions: 33P-ATP, 120 min, room temperature
Experimental: as §2

Chain of TRKC (Q16288 32-839): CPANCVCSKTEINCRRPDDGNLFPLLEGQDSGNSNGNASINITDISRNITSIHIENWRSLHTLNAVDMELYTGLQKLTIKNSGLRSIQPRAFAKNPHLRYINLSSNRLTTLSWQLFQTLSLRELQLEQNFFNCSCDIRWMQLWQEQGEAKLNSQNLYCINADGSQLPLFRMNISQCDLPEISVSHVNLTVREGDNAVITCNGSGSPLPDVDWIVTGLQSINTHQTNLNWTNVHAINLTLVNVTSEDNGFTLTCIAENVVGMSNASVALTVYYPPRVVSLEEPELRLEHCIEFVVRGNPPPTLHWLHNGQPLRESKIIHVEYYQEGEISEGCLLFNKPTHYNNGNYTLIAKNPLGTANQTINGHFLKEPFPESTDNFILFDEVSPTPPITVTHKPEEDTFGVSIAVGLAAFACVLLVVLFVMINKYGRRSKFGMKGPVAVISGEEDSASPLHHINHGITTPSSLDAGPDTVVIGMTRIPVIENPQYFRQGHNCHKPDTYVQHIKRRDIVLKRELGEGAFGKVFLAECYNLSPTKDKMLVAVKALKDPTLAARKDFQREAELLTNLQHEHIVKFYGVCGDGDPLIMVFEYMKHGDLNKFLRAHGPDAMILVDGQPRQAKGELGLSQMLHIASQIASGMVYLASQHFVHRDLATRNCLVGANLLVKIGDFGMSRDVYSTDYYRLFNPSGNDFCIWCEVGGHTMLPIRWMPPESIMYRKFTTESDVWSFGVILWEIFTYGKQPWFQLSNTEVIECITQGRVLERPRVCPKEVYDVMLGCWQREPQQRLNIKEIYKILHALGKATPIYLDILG

Row | Structure (SMILES) | IC50 [1] | IC50 [4] | pIC50 [5] | pIC50 [6] | IC50 [9] | IC50 [10] | IC50 [11] | IC50 [12] | also measured
1 | CCOCC1(C)NC(c2cnn3ccc(N[C@H](C)c4cc(F)ccc4O)nc23)=NO1 (some centres unmarked) [Example 66] | < 0.5 nM | 0.5 to 5 nM | 8.30 to 9.30 | 8.30 to 9.30 |  |  |  |  | IC50 [2]: < 0.5 nM; IC50 [3]: < 0.5 nM
2 | COc1ccc(F)cc1[C@@H](C)Nc1ccn2ncc(C3=NOC4(CCOCC4)N3)c2n1 [Example 46] |  |  |  |  |  |  |  |  | IC50 [7]: 5 to 50 nM
3 | C[C@H](Nc1ccn2ncc(C3=NOC(C)(C)N3)c2n1)c1cc(F)cc2ccccc12 [Example 54] | < 0.5 nM | 0.5 to 5 nM | 8.30 to 9.30 | 8.30 to 9.30 |  |  |  |  | IC50 [2]: < 0.5 nM; IC50 [3]: < 0.5 nM
4 | CC(Nc1ccn2ncc(C3=NOC(C)(C)N3)c2n1)c1ccc(F)cc1 (racemic) [Example 25 racemate] |  |  | 6.30 to 7.30 |  |  |  |  |  | 
5 | COc1ccc(F)cc1[C@@H](C)Nc1ccn2ncc(C3=NOC(C)(c4ccccn4)N3)c2n1 (some centres unmarked) [Example 48] |  |  |  |  |  |  |  |  | IC50 [7]: 50 to 500 nM
6 | C[C@@H](Nc1ccn2ncc(C3=NCC(C)(C)N3)c2n1)c1cc(F)ccc1F [Example 65] | < 0.5 nM | 0.5 to 5 nM | 8.30 to 9.30 | 8.30 to 9.30 |  |  |  |  | IC50 [2]: < 0.5 nM; IC50 [3]: < 0.5 nM
7 | C[C@H](Nc1ccn2ncc(C3=NOC(C)(C)N3)c2n1)c1cc(F)ccc1Br [Example 24] |  |  |  |  |  |  |  |  | IC50 ([5]; read-out: TRKA (IC50/nM), 33P-ATP, 120 min, room temperature): > 500 nM
8 | COc1ccc(F)cc1[C@@H](C)Nc1ccn2ncc(C3=NOC4(CCCC4)N3)c2n1 [Example 44] |  |  |  |  | 13.9 nM | 6.9 nM | 59.2 nM | 14.2 nM | IC50 [7]: 0.5 to 5 nM
9 | Cc1nc(-c2cnn3ccc(N[C@H](C)c4cc(F)ccc4O)nc23)no1 [Example 67] | 0.5 to 5 nM | 0.5 to 5 nM | 7.30 to 8.30 | 7.30 to 8.30 |  |  |  |  | pIC50 [2]: 8.30 to 9.30; pIC50 [3]: 7.30 to 8.30
10 | C[C@@H](Oc1ccn2ncc(C3=NOC(C)(C)N3)c2n1)c1c(Cl)ccc(F)c1Cl [Example 9] |  | 0.5 to 5 nM |  |  | 890 nM | 26.2 nM | 155 nM | 100 nM | IC50 [7]: 50 to 500 nM; IC50 [8]: 50 to 500 nM

Continued, in another order:

Row | IC50 [1] | IC50 [4] | pIC50 [5] | pIC50 [6] | IC50 [9] | IC50 [10] | IC50 [11] | IC50 [12] | Structure (SMILES) | also measured
11 | 0.5 to 5 nM | 0.5 to 5 nM | 8.30 to 9.30 |  |  |  |  |  | C[C@@H](Nc1ccn2ncc(C3=NOC(C)(C)N3)c2n1)c1ccccc1Cl [Example 26] | pIC50 [2]: 8.30 to 9.30; IC50 [8]: 5 to 50 nM
12 |  |  |  |  | 458 nM |  |  |  | COc1ccc(F)c(Cl)c1[C@@H](C)Nc1ccn2ncc(C3=NOC(C)(C)N3)c2n1 [Example 1] | 
13 |  |  |  |  | 3.3 nM | 2.8 nM | 10.3 nM | 2.1 nM | C[C@@H](Nc1ccn2ncc(C3=NOC(C)(C)N3)c2n1)c1cc(F)ccc1OCC(F)(F)F [Example 3] | 
14 |  |  | 6.30 to 7.30 |  |  |  |  |  | Cc1ccc(F)cc1[C@H](C)Nc1ccn2ncc(C3=NOC(C)(C)N3)c2n1 [Example 43] | 
15 |  |  |  |  | 7 nM | 2.2 nM | 16.3 nM | 5.8 nM | COc1c(F)cc(F)cc1[C@@H](C)Nc1ccn2ncc(C3=NOC(C)(C)N3)c2n1 [Example 30] | 
16 |  |  |  |  | 5.1 nM | 2.8 nM | 23.5 nM | 2.3 nM | C[C@@H](Nc1ccn2ncc(C3=NOC(C)(C)N3)c2n1)c1cc(F)ccc1OC(F)(F)F [Example 17] | 
17 | 0.5 to 5 nM | 0.5 to 5 nM | 8.30 to 9.30 | 8.30 to 9.30 | 110 nM | 32.2 nM | 185 nM | 76.9 nM | COc1ccc(F)cc1[C@@H](C)Oc1ccn2ncc(C3=NOC(C)(C)N3)c2n1 [Example 71] | pIC50 [2]: 8.30 to 9.30; pIC50 [3]: 8.30 to 9.30
18 |  |  |  | 7.30 to 8.30 |  |  |  |  | [2H]C([2H])([2H])Oc1ccc(F)cc1[C@@H](C)Nc1ccn2ncc(C3=NOC(C)(C)N3)c2n1 [Example 4] | IC50 [13]: 5 to 50 nM; IC50 [7]: 5 to 50 nM; IC50 [8]: 0.5 to 5 nM
19 |  |  |  |  | 161 nM | 52.1 nM |  | 45.8 nM | COc1cc(F)c(F)cc1[C@@H](C)Nc1ccn2ncc(C3=NOC(C)(C)N3)c2n1 [Example 32] | 
20 |  |  | 6.30 to 7.30 |  |  |  |  |  | C[C@@H](Nc1ccn2ncc(C3=NOC(C)(C)N3)c2n1)c1ccc(F)cc1 [Example 25] | 
